# Laboratory results reported in US10391109B2, “Use of zoledronic acid to prepare drug treating fatty liver disease” (NANJING UNIVERSITY, priority 2015, dated 2019).
# Several values for one entry are separate records, joined by “and”; a condition that tells them apart may be missing. Identical values can stand only once.
# What was measured:
# [1] = system: blood alanine transaminase (ALT); assay: Assay for blood ALT level, C57BL/6J mice; assay type: in vivo; details: 50 μg/kg
# Description: (§1) After the mice were anaesthetized, blood was collected from the eye socket veins, left at room temperature for 30 min, and centrifuged upon serum precipitation. 10 μl serum was taken for ALT and AST assays with the kit.
# (§2) Similar to Example 1, according to the forgoing general materials and methods, the mice in the HFD group were first administered with zoledronic acid and placebo. The blood alanine transaminase (ALT) and aspartate transaminase (AST) levels in mice after administration were assayed.
# (§3) The HFD group is high fat diet group, the RC group is regular chow group, PBS is placebo, ZOL is zoledronic acid, and the dosage is 50 μg/kg.
# [2] = system: hepatic macrovesicular steatosis; assay: H&E staining of liver paraffin sections, high fat diet mice; assay type: in vivo, C57BL/6J mice; details: 50 μg/kg injection
# Description: (§4) An appropriate amount of the right lobe of liver tissue was taken, fixed in 4% paraformaldehyde for 24-48 h, dehyrdated with graded ethanols, cleared with xylene, infiltrated with wax, embedded in paraffin, and sectioned at a thickness of 5 μm.
# (§5) The sections were de-waxed in xylene for 10 min and 5 min respectively, and then reconstituted in graded ethanol solutions. The sections were subjected to hematoxylin staining for 4 min, and then slightly washed with distilled water. The sections were blued in 0.25% NH3.H2O for 30 s, and then washed with distilled water. The sections were dehydrated with graded ethanols to 95% ethanol, stained for 2-3 s in 0.5% eosin, dehydrated in 100% ethanol, and soaked in xylene for 2 min. Finally, the sections were mounted in Rhamsan gum.
# (§6) According to the forgoing general materials and methods, the mice in the HFD group were first administered with zoledronic acid and placebo. In this example, zoledronic acid was administered mainly by tail vein injection. The primary site of action of the drug was liver. The injection was performed once every two days. The dosage was 50 μg/kg of zoledronic acid. Tissue triglyceride level assay and H&E staining were performed for mice after administration.
# [3] = system: hepatic lipid accumulation; assay: Oil Red staining of liver cryosections, ob/ob mice; assay type: in vivo; details: various dosages
# Description: An appropriate amount of the right lobe of liver was taken at the same site for laboratory mice in each group, fixed in paraformaldehyde for 2 h, dehyrdated with 30% sucrose for 8-12 h, and embedded in OCT. It was stored in a refrigerator at −70° C. It was sectioned using a Cryostat Microtome at a section thickness of 15 μm.
# The cryosections were slightly dried at room temperature, slightly washed with 60% ethanol, stained in an Oil Red 0 staining solution (60% Oil Red 0 stock plus 40% distilled water) for 10-15 min, differentiated in 60% ethanol, washed, subjected to nuclear staining with hematoxylin for 1 min, washed for 1 min, suck dried, and mounted with glycerin.
# (§7) Further, the liver structure was shown by H&E staining and the lipid accumulation was shown by Oil Red staining. Injection of zoledronic acid can effectively reduce hepatic lipid accumulation in hereditary obese mice. […] In addition, the use of the zoledronic acid preparation can effectively reduce the body weight of hereditary obese mice, effectively reduce accumulation of epididymal fat pads in mice, and modulate the triglyceride content in body, achieving an effective lipid reducing, lipid lowering, and slimming effect.
# [4] = system: aspartate transaminase (AST); assay: Assay for blood AST level, C57BL/6J mice; assay type: in vivo; details: 50 μg/kg
# Description: as §1, §2, §3
# [5] = system: hepatic lipid accumulation; assay: H&E staining of liver paraffin sections, ob/ob mice; assay type: in vivo; details: various dosages
# Description: as §4, §5, §7
# [6] = Body weight, liver weight and epididymal fat pad weight in ob/ob mice after administration; assay type: in vivo
# Description: In order to further verify the lipid reducing effect of zoledronic acid, the experiments of the present invention were carried out in ob/ob mice of hereditary obese mice models with severe non-alcoholic fatty liver mainly characterized by lipid accumulation. A total of thirty 10-week-old ob/ob mice were selected, randomly assigned to 3 groups of 10 mice, and housed with regular chow (containing 4% fat). Ob/ob mice were mutant mice mainly manifested as obesity and related metabolic syndrome. […] Ob/ob mice were administered with zoledronic acid and control placebo. The resulting changes of physiological indicators in mice were observed and different body weights and physiological indicators were recorded.
# liver triglyceride [7] = assay: Measurement of TG in liver tissue, C57BL/6J mice (foodborne non-alcoholic fatty liver); assay type: in vivo; details: 50 μg/kg tail vein injection once every two days
# Description: (§8) About 50 mg of the right lobe of liver in mice was taken, with an accurate weight recorded. It was washed with PBS, placed in 1 ml of a lysis solution and mechanically homogenized. The lysed tissue homogenate was divided into two portions. One portion, 500 μl, was placed in a metal bath at 70° C., heated for 10 min, and centrifuged for 5 min at 2,000×rpm. 1-10 μl was taken for a tissue TG assay with the kit. Another 500 μl was used for a protein concentration assay using the BCA method.
# as §6, §3
# hepatic lipid content = assay: Quantitative analysis of hepatic lipid content in ob/ob mice (Computer Tomography); assay type: in vivo
# blood ALT = assay: Assay for blood ALT level, ob/ob mice; assay type: in vivo
# Description: as §1
# (§9) Similar to Example 1, according to the forgoing general materials and methods, ob/ob mice were first administered with zoledronic acid preparation and placebo at various dosages. The blood ALT and AST levels in ob/ob mice after treatment were assayed.
# blood AST = assay: Assay for blood AST level, ob/ob mice; assay type: in vivo
# Description: as §1, §9
# [8] = Body weight, liver weight and epididymal fat pad weight in C57BL/6J mice on regular chow or high fat diet after administration; assay type: in vivo; details: 50 μg/kg
# Source text: The present inventors first used model mice with foodborne non-alcoholic fatty liver, that is, high-fat diet (containing 60% fat) was used for inducing C57BL/6J mice for 12 weeks to generate fatty liver. It was found from the experimental assay that feeding of high fat diet could result in hepatic fat accumulation and degeneration in mice.
# A total of forty 8-week-old C57BL/6J mice were selected, and randomly assigned to 4 groups of 10 mice. The mice were weighted respectively, fed with regular chow (containing 4% fat) and high fat diet (containing 60% fat), and housed for 12 weeks. The mice were weekly weighted and recorded, and curves were plotted. After 12 weeks, the mice with fatty liver fed with regular chow and high fat diet were administered with zoledronic acid and placebo so as to explore the function for relieving fat accumulation. Meanwhile, the resulting changes of physiological indicators for mice were observed, and different body weights and physiological indicators were recorded.
# The RC group is regular chow group, the HFD group is high fat diet group, PBS is placebo, ZOL is zoledronic acid, and the dosage is 50 μg/kg.
# liver triglyceride [9] = assay: Measurement of TG in liver tissue, ob/ob mice (hereditary non-alcoholic fatty liver); assay type: in vivo
# Description: as §8
structure (smiles),measurement,setting,value
"O=P(O)(O)C(O)(Cn1ccnc1)P(=O)(O)O [ZOL, 1-hydroxy-2-(imidazol-1-yl)-ethylidene-1,1-bisphosphonic acid]",ALT IU/L,[1]; HFD group,62.8 ± 14.08 IU/L
same,Average decline of ALT vs PBS,[1]; HFD group,45.2% and 44.7%
same,ALT IU/L,[1]; RC group,39.2 ± 12.09 IU/L
same,Average decline of ALT vs PBS,[1]; RC group,no significant changes
same,"Liver histology, H&E staining (FIG. 3)",[2],significant remission in hepatic macrovesicular steatosis
same,"Liver histology, Oil Red staining (FIG. 8)",[3],significant decrease in hepatic lipid accumulation
same,AST IU/L,[4]; HFD group,76 ± 31.42 IU/L
same,Average decline of AST vs PBS,[4]; HFD group,44.7% and 45.2%
same,AST IU/L,[4]; RC group,52.4 ± 21.20 IU/L
same,Average decline of AST vs PBS,[4]; RC group,no significant changes
same,"Liver histology, H&E staining (FIG. 7)",[5],significant decrease in hepatic lipid accumulation
same,Average body weight/g,[6]; ZOL50 (50 μg/kg),50.56 ± 2.82 g
same,Average decline of average body weight vs PBS,[6]; ZOL50 (50 μg/kg),7%
same,Average decline of average epididymal fat pad weight vs PBS,[6]; ZOL50 (50 μg/kg),39%
same,Average decline of average liver weight vs PBS,[6]; ZOL50 (50 μg/kg),17%
same,Average epididymal fat pad weight/g,[6]; ZOL50 (50 μg/kg),3.628 ± 0.27 g
same,Average liver weight/g,[6]; ZOL50 (50 μg/kg),3.47 ± 0.58 g
same,Average body weight/g,[6]; ZOL200 (200 μg/kg),45.94 ± 5.16 g
same,Average decline of average body weight vs PBS,[6]; ZOL200 (200 μg/kg),15%
same,Average decline of average epididymal fat pad weight vs PBS,[6]; ZOL200 (200 μg/kg),4%
same,Average decline of average liver weight vs PBS,[6]; ZOL200 (200 μg/kg),46%
same,Average epididymal fat pad weight/g,[6]; ZOL200 (200 μg/kg),3.79 ± 0.30 g
same,Average liver weight/g,[6]; ZOL200 (200 μg/kg),2.26 ± 0.21 g
same,Average decline of liver triglyceride vs PBS,liver triglyceride [7]; HFD group,44.9%
same,Liver triglyceride,liver triglyceride [7]; HFD group,38.18 ± 10.27 mg/g
same,Average decline of liver triglyceride vs PBS,liver triglyceride [7]; RC group,12.5%
same,Liver triglyceride,liver triglyceride [7]; RC group,14.33 ± 6.39 mg/g
same,Average decline of lipid content vs PBS,hepatic lipid content; ZOL50 (50 μg/kg),20.4%
same,Lipid content,hepatic lipid content; ZOL50 (50 μg/kg),592.00 ± 201.08 mg/mL
same,Average decline of lipid content vs PBS,hepatic lipid content; ZOL200 (200 μg/kg),34%
same,Lipid content,hepatic lipid content; ZOL200 (200 μg/kg),490.22 ± 211.95 mg/mL
same,ALT IU/L,blood ALT; ZOL50 (50 μg/kg),281.6 ± 142.59 IU/L
same,Average decline of ALT vs PBS,blood ALT; ZOL50 (50 μg/kg),42.5%
same,ALT IU/L,blood ALT; ZOL200 (200 μg/kg),277.4 ± 188.65 IU/L
same,Average decline of ALT vs PBS,blood ALT; ZOL200 (200 μg/kg),43.4%
same,AST IU/L,blood AST; ZOL50 (50 μg/kg),240.25 ± 70.54 IU/L
same,Average decline of AST vs PBS,blood AST; ZOL50 (50 μg/kg),30.4%
same,AST IU/L,blood AST; ZOL200 (200 μg/kg),269.75 ± 71.53 IU/L
same,Average decline of AST vs PBS,blood AST; ZOL200 (200 μg/kg),21.9%
same,Average body weight/g,[8]; HFD group (high fat diet),36.73 ± 3.74 g
same,Average decline of average body weight vs PBS,[8]; HFD group (high fat diet),16%
same,Average decline of average epididymal fat pad weight vs PBS,[8]; HFD group (high fat diet),30%
same,Average decline of average liver weight vs PBS,[8]; HFD group (high fat diet),29%
same,Average epididymal fat pad weight/g,[8]; HFD group (high fat diet),2.33 ± 0.62 g
same,Average liver weight/g,[8]; HFD group (high fat diet),1.41 ± 0.17 g
same,Average body weight/g,[8]; RC group (regular chow),26.72 ± 1.69 g
same,Average decline of average body weight vs PBS,[8]; RC group (regular chow),13%
same,Average decline of average epididymal fat pad weight vs PBS,[8]; RC group (regular chow),39%
same,Average decline of average liver weight vs PBS,[8]; RC group (regular chow),17%
same,Average epididymal fat pad weight/g,[8]; RC group (regular chow),0.46 ± 0.11 g
same,Average liver weight/g,[8]; RC group (regular chow),1.28 ± 0.08 g
same,Average decline of liver triglyceride vs PBS,liver triglyceride [9]; ZOL50 (50 μg/kg),No significant change
same,Liver triglyceride,liver triglyceride [9]; ZOL50 (50 μg/kg),140.88 ± 44.29 mg/g
same,Average decline of liver triglyceride vs PBS,liver triglyceride [9]; ZOL200 (200 μg/kg),34%
same,Liver triglyceride,liver triglyceride [9]; ZOL200 (200 μg/kg),98.49 ± 40.08 mg/g
